From US7053046B2 (priority 2001, dated 2006)

How the values were obtained:
Format in all cases: cell-based, human
VEGF C = test system: VEGF C
VEGF B = test system: VEGF B
VEGF A = test system: VEGF A

Molecule: [Cl-].[Cl-].[Co+2] [CoCl2]
- VEGF C gene expression ratio treated/untreated (up) (VEGF C): up 3.0 x
- VEGF B gene expression ratio treated/untreated (up) (VEGF B): up 1.4 x
- VEGF A gene expression ratio treated/untreated (up) (VEGF A): up 3.4 x

Molecule: YGRKKRRQRRR-DLDLEMLA(Hyp)YIPMDDDFQL [ODD peptide]
- VEGF C gene expression ratio treated/untreated (up) (VEGF C): up 4.4 x
- VEGF B gene expression ratio treated/untreated (up) (VEGF B): up 1.4 x
- VEGF A gene expression ratio treated/untreated (up) (VEGF A): up 3.2 x
